The results in this text go back to paper PMC10458458, “Characterization of Anticancer Effects of the Analogs of DJ4, a Novel Selective Inhibitor of ROCK and MRCK Kinases” (Pharmaceuticals, 2023).

One assay deals with H460. As to the kind of experiment: MTT cytotoxicity assay, 72 h. Format: cell-based. Particulars: Homo sapiens, NCI-H460, H460 NSCLC cells, plated to confluence, read-out: IC50 (mean cytotoxic concentration, MTT). The procedure:
(§1) To determine whether the effects on cell viability in AML cells were related to the specific cancer subtypes, or to differences in temporal response to DJ4, we examined whether DJ4 affected the viability of various NSCLC cells over longer periods of drug exposure. MTT assays were performed on H1299, H226, A549, H522, H23, and H460 NSCLC cell lines. […] Similarly, the cell viability of MDA-MB-231 breast cancer cells was assessed by counting live/dead cell populations after a 24-h treatment with 1–10 µM concentrations of DJ4. A concentration-dependent increase in cell death from 29% (1 µM) to 47% (10 µM) was observed (Figure 2B).
(§2) The cytotoxic effect of DJ4 was studied in H1299, H226, A549, H522, H23, and H460 non-small cell lung cancer cells. The cells were seeded into 96-well plates with confluence ([…]). The cells were further treated with DMSO or DJ4 for 72 h. To study the effects of analogs, A549, A375M, and MDA-MB-231 cells were plated with low density (2000 cells/well) in a 96-well plate and grown overnight at 37 °C (with 5% CO2). Cells were treated with the analogs at the concentration of 0–10 µM for 48 h. At the end of the treatment period, cells were incubated with a tetrazolium dye MTT (3-(4,5-dimethylthiazol-2-yl)-2,5-diphenyltetrazolium bromide) reagent (Sigma) at 37 °C for 3 h to develop formazan crystals. The media was siphoned off and crystals were dissolved in DMSO and mixed gently on rocker for 5 min. Absorbance was read at 570 nm and 630 nm (background) wavelength. IC50 values were calculated from non-linear regression curve fit by using GraphPad Prism 5.0 software.
A general note: Tetrazolium assays rely on reduction of a dye to a coloured formazan, in cell work by metabolically active cells.

The subject of a further assay is H226. The assay can be described thus: MTT cytotoxicity assay, 72 h. The format is cell-based. Conditions: Homo sapiens, NCI-H226, H226 NSCLC cells, plated to confluence, read-out: IC50 (mean cytotoxic concentration, MTT). As for the experimental part:
as §1, §2

A further assay deals with H1299. The assay can be described thus: MTT cytotoxicity assay, 72 h. Conditions: Homo sapiens, NCI-H1299, H1299 NSCLC cells, plated to confluence, read-out: IC50 (mean cytotoxic concentration, MTT). Format: cell-based. As for the experimental part: as §1, §2
For another assay, the system named is H23. The assay can be described thus: MTT cytotoxicity assay, 72 h. Conditions: Homo sapiens, NCI-H23, H23 NSCLC cells, plated to confluence, read-out: IC50 (mean cytotoxic concentration, MTT). Format: cell-based. The procedure: as §1, §2
The next assay deals with H522. As to the kind of experiment: MTT cytotoxicity assay, 72 h. The format is cell-based. Particulars: Homo sapiens, NCI-H522, H522 NSCLC cells, plated to confluence, read-out: IC50 (mean cytotoxic concentration, MTT). The procedure:
as §1, §2

The test system of another assay is CDK11. The assay can be described thus: KINOMEscan competition binding assay. Also noted: species or system human. Particulars: CDK11, 10 µM. From the text: (§3) To examine specificity of DJ4 to different human kinases, we performed a KINOMEscan profiling assay (DiscoverX, Fremont, CA, USA). The KINOMEscan assay consists of a panel of more than 480 kinases of different classes (TK/TKL/STE/CK1/AGC/CAMK/CMGC/others), including clinically relevant mutants, atypical kinases, lipid, and pathogen kinases. […] However, we also recognized the limitations of DJ4 that preclude its clinical development and the need for further optimization of the DJ4 chemotype.
The KINOMEscan®, in vitro competition binding assay, was performed by Lead Hunter Discovery Services (DiscoverX Corporation, Fremont, CA, USA) to determine the kinase specificity of DJ4, a novel kinase inhibitor [19, 44]. The KINOMEscan® panel consists of more than 480 kinases, including clinically relevant mutants, lipid, atypical, and pathogen kinases, plus a growing panel of activation-state specific assays. The primary screen was performed using a single concentration of 10 µM, and the results for DJ4 binding interactions are reported as percent of control (%Ctrl). The %Ctrl is calculated as follows: [(DJ4 signal-positive control signal)/(negative control DMSO signal-positive control signal)] x […]. The human kinome tree annotation for DJ4 is plotted with Reaction Biology’s Kinase Mapper and KinMap web interface tool http://kinhub.org/kinmap (accessed on 09 January 2023).

The next assay relates to A549 lung cancer cells. As to the kind of experiment: Colony forming assay. Format: cell-based, human. Particulars: then 14 days treatment-free, relative to control. As for the experimental part: Figure 2 DJ4 reduces cell survival and inhibits colony forming ability of the cancer cells. (A) Different NSCLC cells were plated in a 96-well plate to confluence and then treated for 72 h. Cytotoxicity was assessed by MTT assay. The error bars indicate SEM of triplicates. (B) To assess cytotoxicity of DJ4 in breast cancer cells, MDA-MB-231 cells were treated for 24 h with indicated concentrations of DJ4. Percentage of live cells were counted using Muse^TM Live/Dead reagent and analyzed by Muse^TM cell analyzer. Error bars indicate SEM. n = 2. * p < 0.05. (C) DJ4 inhibits colony forming ability of A549 cells treated for 48 h. After a 48-h treatment, cells were seeded with number of cells mentioned in the table and were allowed to grow and form colonies. At the end of 14 days, colonies were stained and counted. Percent surviving fraction was calculated. The figure is the representative of the replicates. (D) The data are summarized in the table and represent the average of three replicates. TEXT PRINTED IN THE PICTURE: (D) DJ4: Surviving Fraction after 14 days (%): 2.3 (Concentration: 2.5μM; Number of cells plated: 2000; SEM: 0.1); Surviving Fraction after 14 days (%): 0.4 (Concentration: 5μM; Number of cells plated: 4000; SEM: 0.0); Surviving Fraction after 14 days (%): 0.1 (Concentration: 10μM; Number of cells plated: 8000; SEM: 0.0)
To further determine the effects of DJ4 on cell proliferation, we performed colony forming assays in A549 lung cancer cells. Forty-eight hours after the treatment with 2.5, 5.0, and 10 µM DJ4, individual cells were re-plated at low seeding density and colony formation was monitored for 14 days. The percent surviving fraction of cells relative to control cells that formed the distinct colonies were 2.3%, 0.4%, and 0.1% at 2.5, 5.0, and 10 µM, respectively, after 14 days of growth in a treatment-free culture medium (Figure 2C,D).

Assay [1] concerns EGFR mutants (G718C, G719S, L858R, etc.). As to the kind of experiment: KINOMEscan competition binding assay. Particulars: 10 µM. More on the design: species or system human.
From the text: as §3
(§4) Figure 5 The kinase selectivity profile for DJ4 assessed using KINOMEscan high-throughput assay. […] The red spots (ROCK/MRCK/CDK/FLT3/KIT) indicate kinases with high specificity to DJ4. (C,D) The % inhibition profile of DJ4 with wild-type (WT) and its clinically relevant kinase mutants of RET (rearranged during transfection) tyrosine kinase (C) and EGFR (epidermal growth factor receptor) protein kinase (D).
(§5) The KINOMEscan®, in vitro competition binding assay, was performed by Lead Hunter Discovery Services (DiscoverX Corporation, Fremont, CA, USA) to determine the kinase specificity of DJ4, a novel kinase inhibitor [19, 44]. […] The %Ctrl is calculated as follows: [(DJ4 signal-positive control signal)/(negative control DMSO signal-positive control signal)] x 00. […]

For assay [2], the system named is RET tyrosine kinase mutants (V804L/V804/M918T). As to the kind of experiment: KINOMEscan competition binding assay. Also noted: species or system human. Conditions: 10 µM.
From the text: as §3, §4, §5

Turning to `O=C1N/C(=N\CCc2ccccc2)S/C1=C/c1c[nH]c2ncccc12` [DJ4], the IC50 in the assay on H460 came to 9.53 µM; in the assay on H226, 0.67 ± 0.38 µM; in the assay on H1299 it was 0.44 ± 0.04 µM; with H23 it was 2.91 ± 0.71 µM; with H522, 1.69 ± 0.48 µM. In addition, the “inhibition (KINOMEscan)” value in the assay with CDK11 was “more than 98%”. The “Surviving Fraction after 14 days” value in the assay with A549 lung cancer cells (A549, 2.5 µM for 48 h) is given as 2.3%; with A549 lung cancer cells (A549, 5.0 µM for 48 h), 0.4%; in the assay with A549 lung cancer cells (A549, 10 µM for 48 h) it was 0.1%. Further, in assay [1], the “inhibition of EGFR mutants relative to wild-type form” value is on record as “differential inhibition”. In assay [2], the “binding of RET mutants relative to wild-type” value is reported as “stronger binding”.
